The values below are quoted from earlier work in patent publication US20240197726A1, “NOVEL TETRAHYDROISOQUINOLINE ALKALOID COMPOUND CONTAINING MACROCYCLE” (THE UNIVERSITY OF TOKYO, priority 2021, published 2024).

Series [1] relates to MCF-7 breast cancer cells. Conditions: MCF-7 breast cancer cells; comparative value based on the literature; read-out: antitumor activity GI50 value: 50% growth inhibitory concentration; cited from earlier work.
Series [2] deals with MDA-MB-231 breast cancer cells. Conditions: MDA-MB-231 breast cancer cells; comparative value based on the literature; read-out: antitumor activity GI50 value: 50% growth inhibitory concentration; cited from earlier work.
Series [3] relates to HT-29 colorectal cancer cells. Conditions: HT-29 colorectal cancer cells; comparative value based on the literature; read-out: antitumor activity GI50 value: 50% growth inhibitory concentration; cited from earlier work.
Series [4] concerns HCT-116 colorectal cancer cells. Particulars: HCT-116 colorectal cancer cells; comparative value based on the literature; read-out: antitumor activity GI50 value: 50% growth inhibitory concentration; cited from earlier work.
Series [5] deals with NCI-H23 lung cancer cells. Particulars: NCl-H23 lung cancer cells; comparative value based on the literature; read-out: antitumor activity GI50 value: 50% growth inhibitory concentration; cited from earlier work.
Series [6] deals with NCI-H460 lung cancer cells. Conditions: NCl--H460 lung cancer cells; comparative value based on the literature; read-out: antitumor activity GI50 value: 50% growth inhibitory concentration; cited from earlier work.
Series [7] deals with A549 lung cancer cells. Conditions: A549 lung cancer cells; comparative value based on the literature; read-out: antitumor activity GI50 value: 50% growth inhibitory concentration; cited from earlier work.

As for `COc1c(C)cc2c(c1C)[C@H]1N(C)[C@@](C)(C2)C(O)N2C1(C)[C@@H]1CCC3(NCCc4cc(C)c(C)cc43)C(=O)OC[C@@]2(C)c2c3c(c(C)c(C)c21)OCO3` (some centres unmarked), the GI50 was 2.6 nM in series [1]; 3.9 nM in series [2]; 9.8 nM in series [3]; 4.9 nM in series [4]; 2.1 nM in series [5]; 1.8 nM in series [6]. Besides, in series [7], the GI50 is 10.4 nM.
Consider `COc1c(C)cc2c(c1C)[C@H]1N(C)[C@@](C)(C2)C(C)N2C1(C)[C@@H]1CCC3(NCCc4cc(C)c(C)cc43)C(=O)OC[C@@]2(C)c2c3c(c(C)c(C)c21)OCO3` (some centres unmarked), for which the GI50 in series [1] is 2.6 nM; in series [2] it was 3.9 nM; in series [3] it was 9.8 nM; in series [4] it was 4.9 nM; in series [5], 2.1 nM; in series [6], 1.8 nM. For the same compound, the GI50 in series [7] is 10.4 nM.
